One experiment addresses Cathepsin D (Cat D) (Homo sapiens (Human), UniProt P07339). The experiment in a line: In vitro enzymatic Cathepsin D (Cat D) FRET assay. Format: biochemical. The conditions noted are these: read-out: CatD IC50.
The target of the next experiment is BACE (Homo sapiens (Human), UniProt P56817). The experiment in a line: In vitro BACE cell-based assay (Aβ40 in conditioned medium, sandwich ELISA). Background: In an ELISA, binding on a coated surface is turned into a signal by an enzyme label.
The target of experiment [1] is Beta Secretase enzyme (BACE) (Homo sapiens (Human), UniProt P56817). The experiment in a line: In vitro enzymatic BACE FRET assay. Format: biochemical. The following applies: read-out: BACE1 Enzyme assay IC50.
The next experiment relates to Abeta 40. The experiment in a line: In vivo inhibition of beta-secretase: Abeta 40 reduction in CSF and brain of the rat. The following applies: 10 mpk, after 4 hrs; for % reduction of rat CSF levels at 10 pmk: Abeta 40 in rat CSF; for % reduction of rat brain levels at 10 mpk: Abeta 40 in rat brain.

The values below come from patent US9085576B2 (AMGEN INC., priority 2013, dated 2015).

Counter-ions that a name gives are not always drawn.

Chain of Cathepsin D (Cat D) (P07339 65-412, species assumed): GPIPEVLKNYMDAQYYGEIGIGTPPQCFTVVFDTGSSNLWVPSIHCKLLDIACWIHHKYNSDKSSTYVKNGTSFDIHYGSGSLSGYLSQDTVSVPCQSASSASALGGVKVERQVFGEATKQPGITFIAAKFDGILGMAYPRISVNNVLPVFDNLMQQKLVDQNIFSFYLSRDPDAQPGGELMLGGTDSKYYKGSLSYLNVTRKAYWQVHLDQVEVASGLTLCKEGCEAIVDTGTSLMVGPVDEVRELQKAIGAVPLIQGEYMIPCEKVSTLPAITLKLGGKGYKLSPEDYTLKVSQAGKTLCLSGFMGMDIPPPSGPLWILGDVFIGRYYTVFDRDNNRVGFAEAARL
Chain of Beta Secretase enzyme (BACE) (P56817 46-501): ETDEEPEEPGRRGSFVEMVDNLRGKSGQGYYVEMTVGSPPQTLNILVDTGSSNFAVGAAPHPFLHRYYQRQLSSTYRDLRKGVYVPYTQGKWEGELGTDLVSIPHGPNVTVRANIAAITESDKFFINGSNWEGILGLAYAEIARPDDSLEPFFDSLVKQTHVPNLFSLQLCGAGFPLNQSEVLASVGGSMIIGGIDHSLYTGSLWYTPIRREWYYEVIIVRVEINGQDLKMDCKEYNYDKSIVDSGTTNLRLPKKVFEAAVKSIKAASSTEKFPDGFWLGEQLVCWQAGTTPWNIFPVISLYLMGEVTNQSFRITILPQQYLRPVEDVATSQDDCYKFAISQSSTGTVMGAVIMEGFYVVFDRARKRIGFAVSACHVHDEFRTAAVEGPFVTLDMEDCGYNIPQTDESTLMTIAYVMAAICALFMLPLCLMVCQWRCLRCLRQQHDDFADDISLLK
Chain of BACE (P56817 46-501, species assumed): as the sequence (P56817 46-501) above
Source text for Abeta 40: In Vivo Inhibition of Beta-Secretase
Several animal models, including mouse, rat, dog, and monkey, may be used to screen for inhibition of beta-secretase activity in vivo following administration of a test compound sample. […] A separate group of animals receive 2% hydroxypropyl methylcellulose, 1% Tween80 alone, containing no test compound, and serve as a vehicle-control group. At the end of the test period, animals are sacrificed and brain tissues, plasma or cerebrospinal fluid are collected. […] Homogenates are centrifuged at 355,000 g, 4° C. for 30 minutes. CSF or brain supernatants are then analyzed for the presence of A-beta peptide by specific sandwich ELISA assays based on ECL (Electrochemiluminescence) technology. For example, rat Abeta40 is measured using biotinylated-4G8 (Signet) as a capture antibody and Fab40 (an in-house antibody specific to the C-terminal of Abeta40) as a detection antibody.
Actual vehicles used: Oral: 2% HPMC, 1% Tween80, pH 2.2

As to `CC#CCOc1cnc(C(=O)Nc2ccc(F)c([C@@]3(C(F)F)N=C(N)O[C@@H]4C[C@@H]43)c2)cn1` [Example 96, N-(3-((1R,5S,6R)-3-amino-5-(difluoromethyl)-2-oxa-4-azabicyclo[4.1.0]hept-3-en-5-yl)-4-fluorophenyl)-5-(but-2-yn-1-yloxy)pyrazine-2-carboxamide trifluoroacetate], the IC50 was 467 µM at Cathepsin D (Cat D), 0.0033 µM on BACE and 0.001 µM in experiment [1]. Moreover, the “% reduction of rat CSF levels at 10 pmk” value with Abeta 40 worked out at 24%. In addition, in the experiment with Abeta 40, the “% reduction of rat brain levels at 10 mpk” value (shortened to “% reduction … at 10 mpk”) stood at 1%.

Take `NC1=N[C@@](c2cc(NC(=O)c3ccc(Cl)cn3)ccc2Cl)(C(F)F)[C@H]2C[C@H]2O1` [Example 99, N-(3-((1R,5S,6R)-3-amino-5-(difluoromethyl)-2-oxa-4-azabicyclo[4.1.0]hept-3-en-5-yl)-4-chlorophenyl)-5-chloropicolinamide]: the IC50 at Cathepsin D (Cat D) stood at 1050 µM; against BACE, 0.0195 µM; in experiment [1], 0.0227 µM. Besides, in the experiment with Abeta 40, the “% reduction of rat CSF levels at 10 pmk” value amounted to 63%. Further, in the experiment with Abeta 40, the “% reduction … at 10 mpk” value was 58%.

As to `NC1=N[C@](CF)(c2cc(NC(=O)c3ccc(Cl)cn3)ccc2F)[C@H]2C[C@H]2O1` [Example 117, N-(3-((1R,5S,6R)-3-amino-5-(fluoromethyl)-2-oxa-4-azabicyclo[4.1.0]hept-3-en-5-yl)-4-fluorophenyl)-5-chloropicolinamide], the IC50 amounted to 472 µM at Cathepsin D (Cat D), 0.0053 µM on BACE and 0.0211 µM in experiment [1]. Besides, the “% reduction of rat CSF levels at 10 pmk” value with Abeta 40 is 78%. In the experiment with Abeta 40, the “% reduction … at 10 mpk” value is 71%.

Regarding `N#Cc1cnc(C(=O)Nc2ccc(Cl)c([C@@]3(CF)N=C(N)O[C@@H]4C[C@@H]43)c2)c(Cl)c1` [Example 127], the results for the half-inhibitory concentration (IC50) (on Cathepsin D (Cat D); at BACE; in experiment [1]) were 997 µM, 0.0078 µM and 0.0395 µM, respectively. Moreover, the “% reduction of rat CSF levels at 10 pmk” value in the experiment on Abeta 40 was 67%. Further, in the experiment with Abeta 40, the “% reduction … at 10 mpk” value is 50%.

As to `COc1ccc(C(=O)Nc2ccc(F)c([C@@]3(C(F)F)N=C(N)O[C@@H]4C[C@@H]43)c2)nc1` [Example 130, N-(3-((1R,5S,6R)-3-amino-5-(difluoromethyl)-2-oxa-4-azabicyclo[4.1.0]hept-3-en-5-yl)-4-fluorophenyl)-5-methoxypicolinamide], the IC50 on Cathepsin D (Cat D) is 988 µM; against BACE it was 0.0586 µM; in experiment [1], 0.0845 µM. Further, the “% reduction of rat CSF levels at 10 pmk” value in the experiment with Abeta 40 is given as 49%. Also, the “% reduction … at 10 mpk” value in the experiment on Abeta 40 is 23%.

Turning to `NC1=N[C@@](c2cc(NC(=O)c3cnc(OCc4ncco4)cn3)ccc2F)(C(F)F)[C@H]2C[C@H]2O1` [Example 167, N-(3-((1R,5S,6R)-3-amino-5-(difluoromethyl)-2-oxa-4-azabicyclo[4.1.0]hept-3-en-5-yl)-4-fluorophenyl)-5-(oxazol-2-ylmethoxy)pyrazine-2-carboxamide], the values for the concentration for half-maximal inhibition (IC50) (on Cathepsin D (Cat D); against BACE; in experiment [1]) were 767 µM, 0.0103 µM and 0.0124 µM, respectively. In addition, the “% reduction of rat CSF levels at 10 pmk” value in the experiment on Abeta 40 is 60%. Besides, the “% reduction … at 10 mpk” value in the experiment on Abeta 40 is recorded as 41%.

For `NC1=N[C@@](c2cc(NC(=O)c3cnc(OCc4cocn4)cn3)ccc2F)(C(F)F)[C@H]2C[C@H]2O1` [Example 174, N-(3-((1R,5S,6R)-3-amino-5-(difluoromethyl)-2-oxa-4-azabicyclo[4.1.0]hept-3-en-5-yl)-4-fluorophenyl)-5-(oxazol-4-ylmethoxy)pyrazine-2-carboxamide], the IC50 at Cathepsin D (Cat D) stood at 925 µM; on BACE it was 0.0186 µM; in experiment [1], 0.0233 µM. Besides, in the experiment with Abeta 40, the “% reduction of rat CSF levels at 10 pmk” value came to 46%. Moreover, in the experiment with Abeta 40, the “% reduction … at 10 mpk” value is listed as 26%.

As to `N#Cc1ccc(C(=O)Nc2ccc(F)c([C@@]3(CF)N=C(N)O[C@@H]4C[C@@H]43)c2)nc1` [Example 192, N-(3-((1R,5S,6R)-3-amino-5-(fluoromethyl)-2-oxa-4-azabicyclo[4.1.0]hept-3-en-5-yl)-4-fluorophenyl)-5-cyanopicolinamide], the values for the half-maximal inhibitory concentration (IC50) (on Cathepsin D (Cat D); against BACE; in experiment [1]) were 591 µM, 0.0079 µM and 0.0256 µM, respectively. For the same compound, the “% reduction of rat CSF levels at 10 pmk” value in the experiment with Abeta 40 was 81%. Further, the “% reduction … at 10 mpk” value in the experiment with Abeta 40 was determined as 71%.

Take `NC1=N[C@](CF)(c2cc(NC(=O)c3ncc(Cl)cc3Cl)ccc2F)[C@H]2C[C@H]2O1` [Example 193]: the IC50 at Cathepsin D (Cat D) worked out at 875 µM; on BACE, 0.0108 µM; in experiment [1] it was 0.0449 µM. For the same compound, the “% reduction of rat CSF levels at 10 pmk” value with Abeta 40 was determined as 75%. In the experiment on Abeta 40, the “% reduction … at 10 mpk” value was determined as 67%.

Take `CC#CCOc1cnc(C(=O)Nc2ccc(F)c([C@@]3(CF)N=C(N)O[C@@H]4C[C@@H]43)c2)cn1` [Example 199, N-(3-((1R,5S,6R)-3-amino-5-(fluoromethyl)-2-oxa-4-azabicyclo[4.1.0]hept-3-en-5-yl)-4-fluorophenyl)-5-(but-2-yn-1-yloxy)pyrazine-2-carboxamide]: the IC50 at Cathepsin D (Cat D) came out at 959 µM; on BACE, 0.0005 µM; in experiment [1], 0.0022 µM. Besides, the “% reduction of rat CSF levels at 10 pmk” value in the experiment with Abeta 40 amounted to 62%. Also, the “% reduction … at 10 mpk” value in the experiment on Abeta 40 is reported as 42%.

Take `N#Cc1cnc(C(=O)Nc2ccc(F)c([C@@]3(CF)N=C(N)O[C@@H]4C[C@@H]43)c2)c(Cl)c1` [Example 228, N-(3-((1R,5S,6R)-3-amino-5-(fluoromethyl)-2-oxa-4-azabicyclo[4.1.0]hept-3-en-5-yl)-4-fluorophenyl)-3-chloro-5-cyanopicolinamide]: the IC50 is 1010 µM on Cathepsin D (Cat D), 0.0059 µM at BACE and 0.0419 µM in experiment [1]. Also, the “% reduction of rat CSF levels at 10 pmk” value in the experiment with Abeta 40 is reported as 54%. For the same compound, the “% reduction … at 10 mpk” value with Abeta 40 stood at 33%.

Regarding `COc1cnc(C(=O)Nc2ccc(F)c([C@@]3(CF)N=C(N)O[C@@H]4C[C@@H]43)c2)c(Cl)c1` [Example 229, N-(3-((1R,5S,6R)-3-amino-5-(fluoromethyl)-2-oxa-4-azabicyclo[4.1.0]hept-3-en-5-yl)-4-fluorophenyl)-3-chloro-5-methoxypicolinamide], the IC50 at Cathepsin D (Cat D) came to 956 µM; at BACE, 0.0064 µM; in experiment [1], 0.0341 µM. Also, the “% reduction of rat CSF levels at 10 pmk” value in the experiment with Abeta 40 came to 41%. For the same compound, the “% reduction … at 10 mpk” value in the experiment with Abeta 40 amounted to 8%.

As for `Cc1cc(OC(F)F)cnc1C(=O)Nc1ccc(F)c([C@@]2(C(F)F)N=C(N)O[C@@H]3C[C@@H]32)c1` [Example 237, N-(3-((1R,5S,6R)-3-amino-5-(difluoromethyl)-2-oxa-4-azabicyclo[4.1.0]hept-3-en-5-yl)-4-fluorophenyl)-5-(difluoromethoxy)-3-methylpicolinamide], the results for the half-maximal inhibitory concentration (IC50) (on Cathepsin D (Cat D); on BACE; in experiment [1]) were 327 µM, 0.0323 µM and 0.0377 µM, respectively. Further, the “% reduction of rat CSF levels at 10 pmk” value in the experiment with Abeta 40 was 72%. Moreover, the “% reduction … at 10 mpk” value in the experiment on Abeta 40 stood at 67%.

Consider `NC1=N[C@@](c2cc(NC(=O)c3cnc(OC(F)F)cn3)ccc2F)(C(F)F)[C@H]2C[C@H]2O1` [Example 238, N-(3-((1R,5S,6R)-3-amino-5-(difluoromethyl)-2-oxa-4-azabicyclo[4.1.0]hept-3-en-5-yl)-4-fluorophenyl)-5-(difluoromethoxy) pyrazine-2-carboxamide], for which the figures for the IC50 (at Cathepsin D (Cat D); on BACE; in experiment [1]) were 5920 µM, 0.0178 µM and 0.0214 µM, respectively. Further, the “% reduction of rat CSF levels at 10 pmk” value in the experiment on Abeta 40 was found to be 8%. The “% reduction … at 10 mpk” value with Abeta 40 came out at 16%.

For orientation: IC50 means the concentration that gives 50% inhibition.
